Test results taken from patent US4578489A (priority 1982, dated 1986).
Where two headings read alike, the source gives them in different places.

Legend:
Aspergillus niger = assay: Minimum inhibitory concentration against fungi, agar incorporation test, strain K; type: cell-based; settings: malt extract/agar
Procedure: (§1) The invention is carried out using the known agar incorporation test in the following fungi:
(§2) in a malt extract/agar (Merck). Inhibition is effected by adding sufficient of each of the various compounds to give final concentrations in the agar of 2, 5, 10, 50 and 100 mg/liter. The concentrations (mg/liters) required to inhibit the growth of the fungi (starting from traces of fungi added dropwise) are illustrated in Table 3.

Candida albicans = assay: Minimum inhibitory concentration against fungi, agar incorporation test, strain P; type: cell-based; settings: malt extract/agar
Procedure: as §1, §2

Artemia salina = assay: Action against Artemia salina nauplii; type: in vivo; parameters: key: 0: no change; 1: slight change; 1-2: animals are attacked; 2: animals are strongly attacked; 2-3: animals are nearly all dead; 3: animals are all dead
Procedure: The eggs, which are available commercially, are caused to hatch by vigorous aeration. When 2-3 days old, the nauplii are exposed to the products at various concentrations (concentrations tested: 2.5; 1; 0.5 and 0.25 mg/liter) in synthetic seawater, and are observed over a prolonged period of time.

Alternaria alternata = assay: Minimum inhibitory concentration against fungi, agar incorporation test, strain N; type: cell-based; settings: malt extract/agar
Procedure: as §1, §2

Proteus vulgaris = assay: Minimum inhibitory concentration against bacteria, strain A; type: cell-based; settings: 24 hours at 30° C.; tested at 100 and 300 mg/liter
Procedure: (§3) Overnight cultures, grown in Caso peptone bouillon (Merck) of the various strains of bacteria: (A) Proteus vulgaris, (B) Pseudomonas aeruginosa, (C) Enterobacter aerogenes, (D) Serratia marcencens, (E) Alcaligenes denitrificans and (F) Bacillus subtilis are each diluted in a ratio of 1/1000 in saline solution. Sufficient of the suspensions is put into Caso peptone bouillon to dilute the bacteria again in the ratio of 1/1000. Each of the compounds listed in Table 1 is then added in amounts of 100 and 300 mg/liter. After being incubated for 24 hours at 30° C. in a shaking waterbath, the turbidity of the samples is evaluated.

[1] = test system: Cladosporium cladosporioides; assay: Minimum inhibitory concentration against fungi, agar incorporation test, strain O; type: cell-based; settings: malt extract/agar
Procedure: as §1
(O) Cladosporium cladosporioides
as §2

[2] = test system: mixed culture of bacteria; type: cell-based; parameters: key: +: growth, no destruction; (+): growth less than that of control (>10 colonies), slight destruction; (-): slight growth (1-10 colonies); -: no growth, destruction
Aspergillus phoenicis = assay: Minimum inhibitory concentration against fungi, agar incorporation test, strain L; type: cell-based; settings: malt extract/agar
Procedure: as §1
(L) Aspergillus phoenicis
as §2

Chaetomium globosum = assay: Minimum inhibitory concentration against fungi, agar incorporation test, strain S; type: cell-based; settings: malt extract/agar
Procedure: as §1, §2

Chlorella vulgaris = assay: Action against algae: Chlorella vulgaris; type: cell-based; parameters: key: --: no growth on the agar, 3 ppm have destroyed the algae in 6 hours; settings: 3 mg/liter; for Growth on the agar (algae-destroying action): 6 hours exposure, 14 days incubation; for Growth in the medium (growth inhibition): 14 days
Procedure: Cultures of Chlorella vulgaris which had been grown for 14 days in algae nutrient media are diluted in the ratio 1/200 in the algae nutrient medium. Each of the compounds listed in Table 1 is then added in such an amount as to give a final concentration of 3 mg/liter. After incubating for 6 hours, 10 μl of each culture are withdrawn and added dropwise to algae/agar in order to determine the destructive action. After the cultures have incubated for 14 days under illumination (14 hours of light and 10 hours of darkness, alternately), the growth in the algae medium (determination of growth inhibition) and on the algae/agar (determination of algae-destroying action) is assessed visually.

Bacillus subtilis = assay: Minimum inhibitory concentration against bacteria, strain F; type: cell-based; settings: 24 hours at 30° C.; tested at 100 and 300 mg/liter
Procedure: as §3

Penicillium funiculosum = assay: Minimum inhibitory concentration against fungi, agar incorporation test, strain M; type: cell-based; settings: malt extract/agar
Procedure: as §1
(M) Penicillium funiculosum
as §2

[3] = test system: Alcaligenes denitrificans; assay: Minimum inhibitory concentration against bacteria, strain E; type: cell-based; settings: 24 hours at 30° C.; tested at 100 and 300 mg/liter
Procedure: as §3

Serratia marcencens = assay: Minimum inhibitory concentration against bacteria, strain D; type: cell-based; settings: 24 hours at 30° C.; tested at 100 and 300 mg/liter
Procedure: as §3

Aureobasidium pullulans = assay: Minimum inhibitory concentration against fungi, agar incorporation test, strain R; type: cell-based; settings: malt extract/agar
Procedure: as §1
(R) Aureobasidium pullulans
as §2

Endomyces geotrichum = assay: Minimum inhibitory concentration against fungi, agar incorporation test, strain Q; type: cell-based; settings: malt extract/agar
Procedure: as §1, §2

Enterobacter aerogenes = assay: Minimum inhibitory concentration against bacteria, strain C; type: cell-based; settings: 24 hours at 30° C.; tested at 100 and 300 mg/liter
Procedure: as §3

Pseudomonas aeruginosa = assay: Minimum inhibitory concentration against bacteria, strain B; type: cell-based; settings: 24 hours at 30° C.; tested at 100 and 300 mg/liter
Procedure: as §3

[4] = test system: Enteromorpha intestinalis; assay: Action against Enteromorpha intestinalis: destruction (minimum killing concentration); type: in vivo; settings: 4 hours in seawater, then 6-8 weeks in fresh seawater
Procedure: (§4) The action against the green alga Enteromorpha, which is the most important in seawter fouling, is investigated in sterile-filtered seawater containing an Erd-Schreiber solution. This solution is composed of a nutrient extract, phosphate and nitrate. The incubation of Enteromorpha intestinalis is carried out in a light thermostat at 18° C. under an alternation of 14 hours of light and 10 hours of darkness.
The algae which have been cultured in this way are exposed to the products under investigation for a short time (4 hours) in seawater. The minimum killing concentration (MKC) is determined by taking the algae out of the seawater containing a specific quantity of algicide, after the treatment time in the latter, washing the algae and investigating growth or mortality after incubation in fresh seawater for a further period of 6-8 weeks.
The minimum killing concentration (MKC) indicates the amount of substance required to cause such damage to the algae within a specific time that they can no longer recover in fresh seawater and die out.

[5] = test system: Enteromorpha intestinalis; assay: Action against Enteromorpha intestinalis: inhibitory concentration (MIC); type: in vivo; settings: seawater containing biocide for entire test; concentration tested 0.5 mg/liter
Procedure: as §4
For determining the inhibitory concentration (MIC), the algae are kept in seawater containing biocide for the entire duration of the test (concentration tested: 0.5 mg/liter).

[6] = 5 mg/l, culture diluted 1/1000 in Tyrode
[7] = 5 mg/l, culture diluted 1/10000 in Tyrode
[8] = 10 mg/l, culture diluted 1/1000 in Tyrode
[9] = 10 mg/l, culture diluted 1/10000 in Tyrode
[10] = 30 mg/l, culture diluted 1/1000 in Tyrode
[11] = 30 mg/l, culture diluted 1/10000 in Tyrode
[12] = 60 mg/l, culture diluted 1/1000 in Tyrode
[13] = 60 mg/l, culture diluted 1/10000 in Tyrode
[14] = 100 mg/l, culture diluted 1/1000 in Tyrode
[15] = 100 mg/l, culture diluted 1/10000 in Tyrode

## CCCCCCCCCCCCCC[N+](CCO)(CCO)Cc1ccccc1.CCC[CH2][Sn-]([Cl])([Cl])([CH2]CCC)[CH2]CCC [Example 24, Di-hydroxyethyl-benzyl-tetradecyl / Tributyldichloro]
Aspergillus niger
  MIC against fungi, strain K: 5 µg/mL
Candida albicans
  MIC against fungi, strain P: 5 µg/mL
Artemia salina; 0,5 mg/l, 6 hours
  Action against Artemia salina: 1-2
Artemia salina; 0,5 mg/l, 24 hours
  Action against Artemia salina: 2-3
Artemia salina; 0,5 mg/l, 48 hours
  Action against Artemia salina: 3
Artemia salina; 0,25 mg/l, 6 hours
  Action against Artemia salina: 0-1
Artemia salina; 0,25 mg/l, 24 hours
  Action against Artemia salina: 2
Artemia salina; 0,25 mg/l, 48 hours
  Action against Artemia salina: 2-3
Artemia salina; 1 mg/l, 6 hours
  Action against Artemia salina: 2
Artemia salina; 1 mg/l, 24 hours
  Action against Artemia salina: 3
Artemia salina; 1 mg/l, 48 hours
  Action against Artemia salina: 3
Artemia salina; 2,5 mg/l, 6 hours
  Action against Artemia salina: 2-3
Artemia salina; 2,5 mg/l, 24 hours
  Action against Artemia salina: 3
Artemia salina; 2,5 mg/l, 48 hours
  Action against Artemia salina: 3
Alternaria alternata
  MIC against fungi, strain N: 5 µg/mL
Proteus vulgaris
  MIC against bacteria, strain A: 100 µg/mL
[1]
  MIC against fungi, strain O: 2 µg/mL
[2]; [6]
  Growth (destruction of a mixed culture of bacteria): +
[2]; [7]
  Growth (destruction of a mixed culture of bacteria): +
[2]; [8]
  Growth (destruction of a mixed culture of bacteria): +
[2]; [9]
  Growth (destruction of a mixed culture of bacteria): +
[2]; [10]
  Growth (destruction of a mixed culture of bacteria): +
[2]; [11]
  Growth (destruction of a mixed culture of bacteria): +
[2]; [12]
  Growth (destruction of a mixed culture of bacteria): +
[2]; [13]
  Growth (destruction of a mixed culture of bacteria): (+) (growth less than that of control (>10 colonies), slight destruction)
[2]; [14]
  Growth (destruction of a mixed culture of bacteria): +
[2]; [15]
  Growth (destruction of a mixed culture of bacteria): -
Aspergillus phoenicis
  MIC against fungi, strain L: 5 µg/mL
Chaetomium globosum
  MIC against fungi, strain S: 2 µg/mL
Chlorella vulgaris
  Growth on the agar (algae-destroying action): --
  Growth in the medium (growth inhibition): --
Bacillus subtilis
  MIC against bacteria, strain F: 100 µg/mL
Penicillium funiculosum
  MIC against fungi, strain M: 5 µg/mL
[3]
  MIC against bacteria, strain E: 100 µg/mL
Serratia marcencens
  MIC against bacteria, strain D: 100 µg/mL
Aureobasidium pullulans
  MIC against fungi, strain R: 2 µg/mL
Endomyces geotrichum
  MIC against fungi, strain Q: 5 µg/mL
Enterobacter aerogenes
  MIC against bacteria, strain C: 100 µg/mL
Pseudomonas aeruginosa
  MIC against bacteria, strain B: 100 µg/mL

## CCCCCCCCCCCC[N+](CCO)(CCO)Cc1ccccc1.CCC[CH2][Sn-]([Cl])([Cl])([CH2]CCC)[CH2]CCC [Example 5, Dihydroxyethyl-benzyl-lauryl / Tributyldichloro]
Aspergillus niger
  MIC against fungi, strain K: 5 µg/mL
Candida albicans
  MIC against fungi, strain P: 5 µg/mL
Artemia salina; 0,5 mg/l, 6 hours
  Action against Artemia salina: 1-2
Artemia salina; 0,5 mg/l, 24 hours
  Action against Artemia salina: 2-3
Artemia salina; 0,5 mg/l, 48 hours
  Action against Artemia salina: 3
Artemia salina; 0,25 mg/l, 6 hours
  Action against Artemia salina: 0-1
Artemia salina; 0,25 mg/l, 24 hours
  Action against Artemia salina: 2
Artemia salina; 0,25 mg/l, 48 hours
  Action against Artemia salina: 2-3
Artemia salina; 1 mg/l, 6 hours
  Action against Artemia salina: 2
Artemia salina; 1 mg/l, 24 hours
  Action against Artemia salina: 3
Artemia salina; 1 mg/l, 48 hours
  Action against Artemia salina: 3
Artemia salina; 2,5 mg/l, 6 hours
  Action against Artemia salina: 2-3
Artemia salina; 2,5 mg/l, 24 hours
  Action against Artemia salina: 3
Artemia salina; 2,5 mg/l, 48 hours
  Action against Artemia salina: 3
Alternaria alternata
  MIC against fungi, strain N: 5 µg/mL
Proteus vulgaris
  MIC against bacteria, strain A: 100 µg/mL
[1]
  MIC against fungi, strain O: 2 µg/mL
[2]; [6]
  Growth (destruction of a mixed culture of bacteria): +
[2]; [7]
  Growth (destruction of a mixed culture of bacteria): +
[2]; [8]
  Growth (destruction of a mixed culture of bacteria): +
[2]; [9]
  Growth (destruction of a mixed culture of bacteria): +
[2]; [10]
  Growth (destruction of a mixed culture of bacteria): +
[2]; [11]
  Growth (destruction of a mixed culture of bacteria): +
[2]; [12]
  Growth (destruction of a mixed culture of bacteria): +
[2]; [13]
  Growth (destruction of a mixed culture of bacteria): +
[2]; [14]
  Growth (destruction of a mixed culture of bacteria): +
[2]; [15]
  Growth (destruction of a mixed culture of bacteria): (+) (growth less than that of control (>10 colonies), slight destruction)
Aspergillus phoenicis
  MIC against fungi, strain L: 5 µg/mL
Chaetomium globosum
  MIC against fungi, strain S: 2 µg/mL
[4]
  Destruction, 5 mg/liter: yes
Chlorella vulgaris
  Growth on the agar (algae-destroying action): --
  Growth in the medium (growth inhibition): --
Bacillus subtilis
  MIC against bacteria, strain F: 100 µg/mL
Penicillium funiculosum
  MIC against fungi, strain M: 5 µg/mL
[3]
  MIC against bacteria, strain E: 100 µg/mL
Serratia marcencens
  MIC against bacteria, strain D: 100 µg/mL
[5]
  MIC: 0.5 µg/mL
Aureobasidium pullulans
  MIC against fungi, strain R: 2 µg/mL
Endomyces geotrichum
  MIC against fungi, strain Q: 5 µg/mL
Enterobacter aerogenes
  MIC against bacteria, strain C: 100 µg/mL
Pseudomonas aeruginosa
  MIC against bacteria, strain B: 100 µg/mL
